# Key:
# [1] = test system: native PAM; assay: ADM maturation activity (AMA) of native PAM in Li-Heparin plasma with antibody and varying L-ascorbate; format: biochemical, human
# Procedure: A serial antibody-dilution with concentrations of 0, 5, 10, 50, 100, 500 and 3000 μg/mL per well, respectively (in 20 μl) were pipetted into 96-well micro-titer plates. Then 160 μl PAM reaction buffer (100 mM Tris-HCl, 6.25 μM CuSO4, 62.5 μM amastatin, 250 μM leupeptin, 36 ng/mL ADM-Gly) with varying L-ascorbate concentrations was added to the wells and incubated for 15 min. Afterwards the reaction was started by addition of 20 μl of Li-Heparin plasma, containing native PAM Immediately after addition of plasma, 100 μl from each well were removed and inactivated by addition of EDTA (20 mM final concentration) to generate a t=0 minutes reaction point. Inactivated and non-inactivated samples were incubated for 40 minutes at 37° C. and the reaction in non-inactivated samples was stopped as described above. For quantification of produced ADM-NH2 the Sphingotest® bio-ADM Kit (Weber et al. 2017) was utilized according to manufacturer's manual. The ADM maturation activity (AMA) was calculated according to equation 1 (DF=dilution factor of sample matrix).
# [2] = test system: septic patients; conditions: intravenous; placebo group 46%; cited from earlier work
structure (smiles),measurement,setting,value
"O=C1O[C@H]([C@@H](O)CO)C(O)=C1O [ascorbate, L-ascorbic acid, reference compound]",effect on ADM maturation activities,"[1]; ascorbate in the range of 0.4-2 mM, FIG. 15",led to increasing ADM maturation activities
same,activity optimum of the amidating reaction (ascorbate concentration),[1]; with and without HAM8101,0.8 to 2 mM
same,mortality at day 28,[2],~30%

# Source: US12662530B2, “Anti-ADM-antibodies binding to the free N-terminus for accelerated transition of ADM-Gly to bio-ADM in patients with ADM-Gly/ bio-ADM ratio above a threshold and combination with vitamin C” (SphingoTec GmbH, priority 2020, dated 2026)
